# Target: NK1 receptor (Meriones unguiculatus (Mongolian jird) (Gerbillus unguiculatus), UniProt Q5DUB1)
# Assay: Effect on GR73632-induced foot-tapping
# Format: in vivo
# Conditions: male gerbil, 0.1 mg/kg iv, GR73632 icv after four hours
# Procedure: The test compound solution was prepared by dissolving the test compound in a vehicle (a mixture of 50% N,N-dimethylacetamide (Wako Pure Chemical Industries), 30% propylene glycol (Wako Pure Chemical Industries), 4% 2-hydroxypropyl-[…] (Wako Pure Chemical Industries) and 16% distilled water).
# A male gerbil (Japan SLC) was anesthetized with isoflurane, and 0.1 mg/kg of a test compound was administered from the jugular vein. After four hours, GR73632 (5 pmol/5 μl saline), which is an NK1 receptor agonist, was administered into the cerebral ventricle at the part 1 mm lateral to and 4.5 mm below the bregma in the head, under anesthesia with isoflurane. After the administration, the gerbil was moved to an observation cage, and the foot-tapping period during 30 minutes after the recovery of the righting reflex was measured. The foot-tapping inhibition rate (%) of each test compound was calculated by the following equation. Foot-tapping inhibition rate (%)={1−(Foot-tapping period when test compound was administered)/(Foot-tapping period when solvent was administered)}×100 (2) Measurement of Drug Concentrations
# NK1 receptor, sequence (Q5DUB1 whole entry): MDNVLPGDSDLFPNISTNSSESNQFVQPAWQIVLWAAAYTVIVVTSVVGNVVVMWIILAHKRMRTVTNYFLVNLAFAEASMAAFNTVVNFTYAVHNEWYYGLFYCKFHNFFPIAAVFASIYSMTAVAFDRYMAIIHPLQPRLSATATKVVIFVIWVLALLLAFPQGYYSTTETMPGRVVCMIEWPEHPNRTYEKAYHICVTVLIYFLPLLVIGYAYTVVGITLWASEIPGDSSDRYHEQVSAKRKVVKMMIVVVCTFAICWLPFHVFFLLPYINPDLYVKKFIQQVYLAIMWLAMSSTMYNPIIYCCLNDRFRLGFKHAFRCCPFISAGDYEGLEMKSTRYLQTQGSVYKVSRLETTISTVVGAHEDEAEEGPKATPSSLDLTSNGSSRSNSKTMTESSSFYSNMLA
row,Compound,Inhibition (foot-tapping inhibition rate) [%]
1,"Cc1ccccc1-c1cc(C2CCC(CC(=O)O)CC2)ncc1N(C)C(=O)C(C)(C)c1cc(C(F)(F)F)cc(C(F)(F)F)c1 (centres unmarked) [Example 9, {4-[5-{[2-(3,5-Bistrifluoromethylphenyl)-2-methylpropionyl]methylamino}-4-ortho-tolylpyridin-2-yl]-cyclohexyl}acetic acid]",75
2,"Cc1cc(F)ccc1-c1cc([C@H]2CC[C@@H](CC(=O)O)CC2)ncc1N(C)C(=O)C(C)(C)c1cc(C(F)(F)F)cc(C(F)(F)F)c1 [Example 14, cis-{4-[5-{[2-(3,5-bistrifluoromethylphenyl)-2-methylpropionyl]methylamino}-4-(4-fluoro-2-methylphenyl)pyridin-2-yl]cyclohexyl}acetic acid]",99

# Now from value to molecule:
row,Inhibition (foot-tapping inhibition rate) [%],Compound
1,100,"Cc1cc(F)ccc1-c1cc([C@H]2CC[C@H](CC(=O)O)CC2)nc(C#N)c1N(C)C(=O)C(C)(C)c1cc(C(F)(F)F)cc(C(F)(F)F)c1 [Example 20, trans-{4-[5-{[2-(3,5-Bistrifluoromethylphenyl)-2-methylpropionyl]methylamino}-6-cyano-4-(4-fluoro-2-methylphenyl)pyridin-2-yl]cyclohexyl}acetic acid]"
2,100,"Cc1cc(F)ccc1-c1cc(C2CCC(CC(=O)O)CC2)nc(C)c1N(C)C(=O)C(C)(C)c1cc(C(F)(F)F)cc(C(F)(F)F)c1 (centres unmarked) [Example 18, {4-[5-{[2-(3,5-Bistrifluoromethylphenyl)-2-methylpropionyl]methylamino}-4-(4-fluoro-2-methylphenyl)-6-methylpyridin-2-yl]cyclohexyl}acetic acid]"
3,95,"Cc1cc(F)ccc1-c1cc(C2CCC(CC(=O)O)CC2)nc(CO)c1N(C)C(=O)C(C)(C)c1cc(C(F)(F)F)cc(C(F)(F)F)c1 (centres unmarked) [Example 19, {4-[5-{[2-(3,5-Bistrifluoromethylphenyl)-2-methylpropionyl]methylamino}-4-(4-fluoro-2-methylphenyl)-6-hydroxymethylpyridin-2-yl]cyclohexyl}acetic acid]"
